PMC4147338, “Host defense peptides for treatment of colorectal carcinoma – a comparative in vitro and in vivo analysis” (Oncotarget, 2014)

Assays:
HROC24 cells [1] = assay: Calcein-AM cell viability staining, 24h; format: cell-based, human; conditions: HROC24, 24h, 0.25-12.5 μM
Experimental: (§1) Figure 4 HDP-mediated cytotoxicity towards tumor cells Quantitative analysis of direct cytotoxicity towards tumor cells following a 24h incubation period with increasing HDP concentrations. Viability was assessed using Calcein-AM staining. Remaining viable tumor cells were quantified in comparison to untreated controls, which were set to be =1. […] Values are given as the mean x-fold increase ± SD. *p<0.05 vs. NK11; **p<0.01 vs. NK11.
(§2) This assay is based on Calcein-acetoxymethylester (Calcein-AM; Invitrogen, Darmstadt, Germany) staining to detect viable cells within a culture. Tumor and normal (PBL) cells (1-2 × 10^4 cells/well in triplicates) were seeded in 96-well plates and incubated overnight. Thereafter, peptides were added in increasing concentrations (ranging from 0.25 μM – 12.5 μM). Untreated cells served as living cell control. Medium was removed after 1h or 24h, respectively. Calcein-AM ([…]) was added and incubated for 30 min (37°C, 5% CO2). Analysis was performed on a fluorescence multi-well plate reader (Tecan Infinite® M200, Crailsheim, Germany) at an excitation wavelength of 485 nm (emission 535 nm). For estimation of cell viability, the relative fluorescence intensities of Calcein-AM-stained non-treated cells (=live control) were set to be 1, and fluorescence intensities of samples were calculated. Data of at least three independent experiments each performed in […] are given.

HCT116 cells = assay: Calcein-AM cell viability staining, 24h; format: cell-based, human; conditions: HCT116, 24h, 0.25-12.5 μM
Experimental: as §1, §2

[2] = FRET spectroscopy probe dilution assay, membrane intercalation; format: binding; conditions: NBD-PE/rhodamine-PE, peptide 0.2-0.8 μM, 20 mM HEPES 150 mM NaCl pH 7.4, 37°C
Experimental: FRET spectroscopy served as a sensitive tool to detect lipid dependence of the membrane interaction of antimicrobial peptides. For this, all peptides were added to liposomes consisting of zwitterionic PC alone, of a mixture of PC and of negatively charged PS, as well as of pure PS (Figure 1). All lipid vesicles were doped with donor and acceptor dyes, peptides were added, and the emission intensities of both dyes were monitored over time. An increase of the fluorescence intensity of the donor (IDonor) and a simultaneous decrease of the fluorescence intensity of the acceptor dye (IAcceptor), i.e. a reduced FRET efficacy, indicated an increase in the overall mean distance between labeled phospholipids, and corresponded to an insertion of peptides into the lipid bilayer. For clarity, the IDonor/IAcceptor ratio is shown (Figure 1).
Figure 1 FRET spectroscopy. (A-C) Binding to and insertion of peptide C7A-D21K into phospholipid membranes (A) C7A-D21K was added at time point 50 s to liposomes (10 μM) consisting of pure PC, (B) a 90:10 molar mixture of PC:PS, and (C) of pure PS, each doubly doped with the fluorescently labeled FRET pair NBD-PE (donor) and rhodamine-PE (acceptor). Intercalation was monitored by measuring donor and acceptor fluorescence emission intensities. For better visualization only the quotient (IDonor/IAcceptor) is shown. Addition of the peptide solvent alone had no effect (dotted grey line). Peptide concentrations used: 0.2 μM (dotted black line, only in C), 0.4 μM (solid grey line, only in C), and 0.8 μM (solid black line). (D-F) Binding to and insertion of peptides at different concentrations into phospholipid membranes. (A) Peptides were added to liposomes consisting of pure PC, (B) a 90:10 molar mixture of PC:PS, and (C) of pure PS, each doubly doped with the fluorescently labeled phospholipid FRET pair NBD-PE (donor) and rhodamine-PE (acceptor). Intercalation was monitored by measuring donor and acceptor fluorescence intensities. The relative increase of the IDonor/IAcceptor ratio 250 s after peptide addition is shown (Increase of IDonor/IAcceptor (%) = (IDonor/IAcceptor (peptide) - IDonor/IAcceptor (control))*100). Peptide concentrations used: 0.2 μM (open bars), 0.4 μM (grey bars), and 0.8 μM (black bars).
Intercalation of peptides into liposome membranes was determined by FRET spectroscopy applied as a probe dilution assay. Liposomes were prepared by dissolving appropriate lipid mixtures (pure PC, a 90:10 molar mixture of PC:PS, as well as pure PS, each doped with 1% of the donor dye NBD-PE and 1% of the acceptor dye rhodamine-PE) in chloroform and drying them under a gentle stream of nitrogen. The resulting lipid film was dispersed in 20 mM HEPES, 150 mM NaCl, pH 7.4, sonicated for 30 min and subjected to 3-4 temperature cycles from 4 to 60°C with an incubation period of 30 min at each step. Lipid dispersions were stored at 4°C overnight before use. For the assay, donor fluorescence (NBD) was excited at 470 nm, and donor (NBD, ID at 531 nm) as well as acceptor (rhodamine, IA at 593 nm) emission intensities were monitored over time. An increase of the ratio of the donor fluorescence intensity to that of the acceptor fluorescence intensity (IDonor/I^Acceptor) was interpreted as a membrane intercalation event. This ratio depends on the Förster efficiency, therefore a rising value means that the mean distance separation of donor and acceptor dyes is raising. The assay was performed at 37°C.

HROC24 cells [3] = assay: Apoptosis/necrosis assay, YO-PRO-1/PI flow cytometry; format: cell-based, human
Experimental: (§3) Figure 5 Apoptosis/necrosis assay and Western blot analysis (A, B) HROC18 and HROC24 cells were exposed to increasing HDP concentrations for a period of 24 hours. Tumor cells were stained with YO-PRO-1 for detecting early and late apoptotic tumor cells. Prior to flow cytometric analysis, PI was added to detect necrotic cells, as well. (A) Representative dot plots showing HDP-treated HROC24 cells at a concentration of 5 μM. Lower right quadrant: early apoptotic cells; upper right quadrant: late apoptotic cells; upper left quadrant: necrotic cells. (B) For cell death quantification, values of background cell death (=untreated controls) were subtracted from values of HDP-treated cells. Left panel: HROC24 cell; right panel: HROC18 cells. (C, E) Representative western blot results showing HDP-treated HROC24 cells (20 μg of total protein per lane). (D, F) Quantitative analysis of BAX and HSP90 expression in HDP-treated cells was done as described in material & methods. Expression levels of untreated cells were set to be =1 and x-fold increases of HDP-exposed cells were calculated. […] Values are given as mean ± SD.
(§4) Cell death was quantified by YO-PRO-1 (Invitrogen) and PI double staining. Selected tumor cells (HROC24 and HROC18, 1 × 10^4 cells/well) were seeded in 24-well plates and incubated overnight. Thereafter, peptides were added in increasing concentrations (ranging from 0.25 μM – 12.5 μM). Untreated cells served as living control. Following a 24-hour incubation period, supernatants were collected; cells were trypsinized and washed in PBS. Cells were stained with YO-PRO-1 (final concentration: 0.2 μM) for 20 min at room temperature. Prior to flow cytometric analysis, PI was added at a final concentration of 100 μg/ml. For cell death quantification, values of background cell death (=untreated controls) were subtracted from values of HDP-treated cells.

HROC18 cells = assay: as above; format: cell-based, human; conditions: HROC18, 24h, background cell death subtracted
Experimental: as §3, §4

[4] = tested on: HDP-responsive cell lines (e.g. HROC24); assay: Western blot analysis of Bax and HSP90 expression; format: cell-based, human; conditions: normalized to β-actin, untreated =1
Experimental: Figure 5 Apoptosis/necrosis assay and Western blot analysis (A, B) HROC18 and HROC24 cells were exposed to increasing HDP concentrations for a period of 24 hours. Tumor cells were stained with YO-PRO-1 for detecting early and late apoptotic tumor cells. Prior to flow cytometric analysis, PI was added to detect necrotic cells, as well. (A) Representative dot plots showing HDP-treated HROC24 cells at a concentration of 5 μM. Lower right quadrant: early apoptotic cells; upper right quadrant: late apoptotic cells; upper left quadrant: necrotic cells. (B) For cell death quantification, values of background cell death (=untreated controls) were subtracted from values of HDP-treated cells. […] (D, F) Quantitative analysis of BAX and HSP90 expression in HDP-treated cells was done as described in material & methods. Expression levels of untreated cells were set to be =1 and x-fold increases of HDP-exposed cells were calculated. […]
Cellular protein extracts were obtained from HDP-treated and control cells following incubation with lysis buffer (1 M Tris, pH 7.5, 5 M sodium chloride, 0.25 M ethylenediaminetetraacetic acid, 10% (v/v) triton-x 100, 4% (v:v) sodium azide, 0.1 M phenylmethane-sulfonylfluoride, protease inhibitor cocktail (Roche, Mannheim, Germany)) on ice for 30 min. […] Signal integrated intensities were quantified applying the Odyssey® software version 3.16. […]

[5] = tested on: whole blood cells of healthy donors; assay: Hemolysis assay, hemoglobin release; format: cell-based, human; conditions: whole blood of healthy donors (n=6), 0.25-12.5 μM, 120 min incubation (text: 24h), absorption 540 nm, 1% SDS = maximum lysis
Experimental: Figure 6 Hemolysis and lymphotoxicity assays (A) Hemolytic activity of HDPs was determined by hemoglobin release from whole blood cells after 120 min incubation. Negative controls were left untreated whereas positive controls (=maximum lysis) were treated with 1% SDS. Hemolytic activity was quantified as described in the material and methods section. (B) PBLs were incubated in the presence of increasing HDP concentrations for a period of 24 hours. Viability was analyzed using Calcein-AM and quantified in comparison to untreated controls, which were set to be =1. […] Experiments were performed in triplicates. Values are given as the mean x-fold increase ± SD.
Hemolytic activity of HDPs was determined by hemoglobin release from whole blood cells after 120 min incubation. Briefly, whole blood of healthy donors (n=6) was seeded in 96-well plates and supplemented with HDPs at given concentrations (ranging from: 0.25 μM – 12.5 μM). Negative controls were left untreated and positive controls (=maximum lysis) were treated with 1% SDS. Following the incubation period, cell-free supernatants were transferred into a new 96-well plate and absorption was measured on a plate reader at 540 nm (reference wave length: 690 nm). Hemolytic activity was quantified according to the following formula: % hemolysis=((OD540nm sample−OD540nm buffer)/OD540nm max−OD540nm buffer)*100

Row | Molecule | Lytic activity towards tumor cells (HROC24 cells [1]) | Lytic activity towards tumor cells (HCT116 cells) | Membrane intercalation (increase of IDonor/IAcceptor) ([2]; PC:PS 90:10 liposomes 10 μM) | Membrane intercalation (increase of IDonor/IAcceptor) ([2]; pure PS liposomes 10 μM) | Levels of viable HROC24 cells (HROC24 cells [3]; 24h, higher concentrations) [%] | Tumor killing compared with Melittin (HROC24 cells [3]; HROC24, 24h) | total killing (HROC18 cells) | HSP90 protein expression [4] | hemolysis [5]
1 | KILRGVAKKIMRTFLRR ILTGKK [Peptide C7A-Δ, C7A shortened by deletion of four amino acid residues] | as effective as the reference compound Mellitin | as effective as the reference compound Mellitin | slightly impaired | pronounced | 17 | as effective in tumor killing as Melittin | up to 60% |  | 
2 | CC[C@H](C)[C@H](NC(=O)CN)C(=O)NCC(=O)N[C@@H](C)C(=O)N[C@H](C(=O)N[C@@H](CC(C)C)C(=O)N[C@@H](CCCCN)C(=O)N[C@H](C(=O)N[C@@H](CC(C)C)C(=O)N[C@H](C(=O)N[C@H](C(=O)NCC(=O)N[C@@H](CC(C)C)C(=O)N1CCC[C@H]1C(=O)N[C@@H](C)C(=O)N[C@@H](CC(C)C)C(=O)N[C@H](C(=O)N[C@@H](CO)C(=O)N[C@@H](Cc1c[nH]c2ccccc12)C(=O)N[C@H](C(=O)N[C@@H](CCCCN)C(=O)N[C@@H](CCCNC(=N)N)C(=O)N[C@@H](CCCCN)C(=O)N[C@@H](CCCNC(=N)N)C(=O)N[C@@H](CCC(N)=O)C(=O)N[C@@H](CCC(N)=O)C(N)=O)[C@@H](C)CC)[C@@H](C)CC)[C@@H](C)O)[C@@H](C)O)C(C)C)C(C)C [Melittin] |  |  |  |  |  |  | 71% | dose-dependently induced | below 20%
